Test results: patent publication US20240287076A1, “COMPOUNDS FOR TARGETING DEGRADATION OF BRUTON'S TYROSINE KINASE” (BIOGEN MA INC., priority 2021, published 2024)

molecular target: T1, BTK (Homo sapiens, UniProt Q06187); experiment: BTK degradation assay using the HiBiT Method (Nano-Glo HiBiT Lytic Assay, GM01501.3 cells); format: cell-based; conditions: HiBiT Degradation on GM01501.3 BTK @ 6 hours
T1 construct: The GM01501.3 cell line endogenously expresses BTK with a HiBiT fusion tag via CRISPR knock-in at its C-terminal region; endogenous in cells; host or cells: GM01501.3 (GM01501 cells engineered by CRISPR knock-in of HiBiT at the BTK locus)
Outline: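 CRISPR knock-in GM01501.3 cells expressing endogenous BTK with C-terminal HiBiT tag, treated 6 h at 37 °C with compounds, 11-point half-log titration from 10 μM top, duplicates. Remaining BTK quantified by Nano-Glo HiBiT lytic luminescence versus DMSO controls; DC50 reported.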

T1 sequence (Q06187 whole entry, the tested form may be a part): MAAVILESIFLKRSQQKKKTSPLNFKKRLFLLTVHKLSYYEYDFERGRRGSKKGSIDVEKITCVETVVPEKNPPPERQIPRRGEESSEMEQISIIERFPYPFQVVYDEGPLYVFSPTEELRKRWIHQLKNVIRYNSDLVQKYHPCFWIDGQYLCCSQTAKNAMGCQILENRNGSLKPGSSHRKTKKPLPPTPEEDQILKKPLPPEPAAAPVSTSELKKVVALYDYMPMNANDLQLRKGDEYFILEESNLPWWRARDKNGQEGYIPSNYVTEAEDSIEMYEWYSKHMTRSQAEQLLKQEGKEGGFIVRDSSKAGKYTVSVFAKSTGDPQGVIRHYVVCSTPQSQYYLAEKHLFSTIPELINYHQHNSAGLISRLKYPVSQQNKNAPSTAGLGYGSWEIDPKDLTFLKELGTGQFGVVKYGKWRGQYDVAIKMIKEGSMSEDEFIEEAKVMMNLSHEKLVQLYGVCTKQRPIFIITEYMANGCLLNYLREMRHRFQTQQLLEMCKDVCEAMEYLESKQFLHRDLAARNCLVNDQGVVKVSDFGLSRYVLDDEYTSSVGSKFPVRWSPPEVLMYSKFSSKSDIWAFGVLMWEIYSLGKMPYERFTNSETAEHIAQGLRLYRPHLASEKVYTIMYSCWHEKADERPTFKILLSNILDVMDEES

DC50, < 100 nM:
CC(C)(C)OC1CN(C(=O)NCc2ccc(-c3ncnn4cc(-c5ccc(CN6CCC(c7ccc(NC8CCC(=O)NC8=O)cn7)CC6)cc5)cc34)cc2F)C1 (stereo not drawn) [Example 100, 3-tert-butoxy-N-[[4-[6-[4-[[4-[5-[(2,6-dioxo-3-piperidyl)amino]-2-pyridyl]-1-piperidyl]methyl]phenyl]pyrrolo[2,1-f][1,2,4]triazin-4-yl]-2-fluoro-phenyl]methyl]azetidine-1-carboxamide]
O=C1CCC(Nc2ccc(C3CCN(Cc4ccc(-c5cc6c(-c7ccc(CNC(=O)c8ccc(C(F)F)cc8)c(F)c7)ncnn6c5)cc4)CC3)cc2)C(=O)N1 (stereo not drawn) [Example 101, 4-(difluoromethyl)-N-[[4-[6-[4-[[4-[4-[(2,6-dioxo-3-piperidyl)amino]phenyl]-1-piperidyl]methyl]phenyl]pyrrolo[2,1-f][1,2,4]triazin-4-yl]-2-fluoro-phenyl]methyl]benzamide]
O=C1CCC(Nc2ccc(C3CCN(Cc4ccc(-c5cc6c(-c7ccc(CNC(=O)c8ccc(C(F)F)cc8)c(F)c7)ncnn6c5)cc4)CC3)nc2)C(=O)N1 (stereo not drawn) [Example 102, 4-(difluoromethyl)-N-[[4-[6-[4-[[4-[5-[(2,6-dioxo-3-piperidyl)amino]-2-pyridyl]-1-piperidyl]methyl]phenyl]pyrrolo[2,1-f][1,2,4]triazin-4-yl]-2-fluoro-phenyl]methyl]benzamide]
Cc1cc(-c2ncnn3cc(-c4ccc(CN5CCC(c6ccc(NC7CCC(=O)NC7=O)cc6)CC5)cc4)cc23)ccc1CN1CCN(CC(C)(C)C)CC1=O (stereo not drawn) [Example 103, 3-[4-[1-[[4-[4-[4-[[4-(2,2-dimethylpropyl)-2-oxo-piperazin-1-yl]methyl]-3-methyl-phenyl]pyrrolo[2,1-f][1,2,4]triazin-6-yl]phenyl]methyl]-4-piperidyl]anilino]piperidine-2,6-dione]
Cc1cc(-c2ncnn3cc(-c4ccc(OCCN5CCC(c6ccc(C7CCC(=O)NC7=O)cc6)CC5)cc4)cc23)ccc1CNC(=O)c1noc(C(C)(C)C)n1 (stereo not drawn) [Example 104, 5-tert-butyl-N-[[4-[6-[4-[2-[4-[4-(2,6-dioxo-3-piperidyl)phenyl]-1-piperidyl]ethoxy]phenyl]pyrrolo[2,1-f][1,2,4]triazin-4-yl]-2-methyl-phenyl]methyl]-1,2,4-oxadiazole-3-carboxamide]
Cc1cc(-c2ncnn3cc(-c4ccc(OCCN5CCC(c6ccc(NC7CCC(=O)NC7=O)cc6)CC5)cc4)cc23)ccc1CNC(=O)c1noc(C(C)(C)C)n1 (stereo not drawn) [Example 105, 5-tert-butyl-N-[[4-[6-[4-[2-[4-[4-[(2,6-dioxo-3-piperidyl)amino]phenyl]-1-piperidyl]ethoxy]phenyl]pyrrolo[2,1-f][1,2,4]triazin-4-yl]-2-methyl-phenyl]methyl]-1,2,4-oxadiazole-3-carboxamide]
Cc1cc(-c2ncnn3cc(-c4ccc(OCCN5CCC(c6ccc(CN7CCC(=O)NC7=O)cc6)CC5)cc4)cc23)ccc1CNC(=O)c1noc(C(C)(C)C)n1 [Example 106, 5-tert-butyl-N-[[4-[6-[4-[2-[4-[4-[(2,4-dioxohexahydropyrimidin-1-yl)methyl]phenyl]-1-piperidyl]ethoxy]phenyl]pyrrolo[2,1-f][1,2,4]triazin-4-yl]-2-methyl-phenyl]methyl]-1,2,4-oxadiazole-3-carboxamide]
Cc1cc(-c2ncnn3cc(-c4ccc(OCCN5CCC(c6ccc(OC7CCC(=O)NC7=O)cc6)CC5)cc4)cc23)ccc1CNC(=O)c1noc(C(C)(C)C)n1 (stereo not drawn) [Example 107, 5-tert-butyl-N-[[4-[6-[4-[2-[4-[4-[(2,6-dioxo-3-piperidyl)oxy]phenyl]-1-piperidyl]ethoxy]phenyl]pyrrolo[2,1-f][1,2,4]triazin-4-yl]-2-methyl-phenyl]methyl]-1,2,4-oxadiazole-3-carboxamide]
CC(C)(C)c1nc(C(=O)NCc2ccc(-c3ncnn4cc(-c5ccc(OCCN6CCC(n7ccc(NC8CCC(=O)NC8=O)n7)CC6)cc5)cc34)cc2F)no1 (stereo not drawn) [Example 108, 5-tert-butyl-N-[[4-[6-[4-[2-[4-[3-[(2,6-dioxo-3-piperidyl)amino]pyrazol-1-yl]-1-piperidyl]ethoxy]phenyl]pyrrolo[2,1-f][1,2,4]triazin-4-yl]-2-fluoro-phenyl]methyl]-1,2,4-oxadiazole-3-carboxamide]
Cn1nc(N2CCC(=O)NC2=O)c2ccc(C3CCN(CCOc4ccc(-c5cc6c(-c7ccc(CNC(=O)c8noc(C(C)(C)C)n8)c(F)c7)ncnn6c5)cc4)CC3)cc21 [Example 109]
CC(C)(C)c1nc(C(=O)NCc2ccc(-c3ncnn4cc(-c5ccc(OCCN6CCC(c7ccc(NC8CCC(=O)NC8=O)nc7)CC6)cc5)cc34)cc2F)no1 (stereo not drawn) [Example 110, 5-tert-butyl-N-[[4-[6-[4-[2-[4-[6-[(2,6-dioxo-3-piperidyl)amino]-3-pyridyl]-1-piperidyl]ethoxy]phenyl]pyrrolo[2,1-f][1,2,4]triazin-4-yl]-2-fluoro-phenyl]methyl]-1,2,4-oxadiazole-3-carboxamide]
CC(C)(C)c1nc(C(=O)NCc2ccc(-c3ncnn4cc(-c5ccc(OCCN6CCC(c7ccc(C8(C)CCC(=O)NC8=O)cc7)CC6)cc5)cc34)cc2F)no1 (stereo not drawn) [Example 111, 5-tert-butyl-N-[[2-fluoro-4-[6-[4-[2-[4-[4-(3-methyl-2,6-dioxo-3-piperidyl)phenyl]-1-piperidyl]ethoxy]phenyl]pyrrolo[2,1-f][1,2,4]triazin-4-yl]phenyl]methyl]-1,2,4-oxadiazole-3-carboxamide]
Cc1cc(-c2ncnn3cc(-c4ccc(OCCCCN5CCC(c6ccc(NC7CCC(=O)NC7=O)cc6)CC5)cc4)cc23)ccc1CNC(=O)c1nc(C(C)(C)C)ns1 (stereo not drawn) [Example 112, 3-tert-butyl-N-[[4-[6-[4-[4-[4-[4-[(2,6-dioxo-3-piperidyl)amino]phenyl]-1-piperidyl]butoxy]phenyl]pyrrolo[2,1-f][1,2,4]triazin-4-yl]-2-methyl-phenyl]methyl]-1,2,4-thiadiazole-5-carboxamide]
Cc1cc(-c2ncnn3cc(-c4ccc(OCCCCN5CCC(c6ccc(NC7CCC(=O)NC7=O)cc6)CC5)cc4)cc23)ccc1CNC(=O)c1noc(C(C)(C)C)n1 (stereo not drawn) [Example 113, -tert-butyl-N-[[4-[6-[4-[4-[4-[4-[(2,6-dioxo-3-piperidyl)amino]phenyl]-1-piperidyl]butoxy]phenyl]pyrrolo[2,1-f][1,2,4]triazin-4-yl]-2-methyl-phenyl]methyl]-1,2,4-oxadiazole-3-carboxamide]
Cc1cc(-c2ncnn3cc(-c4ccc(OCCCCCCN5CCC(c6ccc(NC7CCC(=O)NC7=O)cc6)CC5)cc4)cc23)ccc1CNC(=O)c1noc(C(C)(C)C)n1 (stereo not drawn) [Example 114, 5-tert-butyl-N-[[4-[6-[4-[6-[4-[4-[(2,6-dioxo-3-piperidyl)amino]phenyl]-1-piperidyl]hexoxy]phenyl]pyrrolo[2,1-f][1,2,4]triazin-4-yl]-2-methyl-phenyl]methyl]-1,2,4-oxadiazole-3-carboxamide]
Cc1cc(-c2ncnn3cc(-c4ccc(OCCCCCCCCN5CCC(c6ccc(NC7CCC(=O)NC7=O)cc6)CC5)cc4)cc23)ccc1CNC(=O)c1noc(C(C)(C)C)n1 (stereo not drawn) [Example 115, -tert-butyl-N-[[4-[6-[4-[8-[4-[4-[(2,6-dioxo-3-piperidyl)amino]phenyl]-1-piperidyl]octoxy]phenyl]pyrrolo[2,1-f][1,2,4]triazin-4-yl]-2-methyl-phenyl]methyl]-1,2,4-oxadiazole-3-carboxamide]
Cc1cc(-c2ncnn3cc(CCN4CCC(c5ccc(C6CCC(=O)NC6=O)cc5)CC4)cc23)ccc1CNC(=O)c1noc(C(C)(C)C)n1 (stereo not drawn) [Example 116, 5-tert-butyl-N-[[4-[6-[2-[4-[4-(2,6-dioxo-3-piperidyl)phenyl]-1-piperidyl]ethyl]pyrrolo[2,1-f][1,2,4]triazin-4-yl]-2-methyl-phenyl]methyl]-1,2,4-oxadiazole-3-carboxamide]
Cc1cc(-c2ncnn3cc(CCN4CCC(c5ccc(NC6CCC(=O)NC6=O)cc5)CC4)cc23)ccc1CNC(=O)c1noc(C(C)(C)C)n1 (stereo not drawn) [Example 117, 5-tert-butyl-N-[[4-[6-[2-[4-[4-[(2,6-dioxo-3-piperidyl)amino]phenyl]-1-piperidyl]ethyl]pyrrolo[2,1-f][1,2,4]triazin-4-yl]-2-methyl-phenyl]methyl]-1,2,4-oxadiazole-3-carboxamide]
Cc1cc(-c2ncnn3cc(CCN4CCC(c5ccc(OC6CCC(=O)NC6=O)cc5)CC4)cc23)ccc1CNC(=O)c1noc(C(C)(C)C)n1 (stereo not drawn) [Example 118, 5-tert-butyl-N-[[4-[6-[2-[4-[4-[(2,6-dioxo-3-piperidyl)oxy]phenyl]-1-piperidyl]ethyl]pyrrolo[2,1-f][1,2,4]triazin-4-yl]-2-methyl-phenyl]methyl]-1,2,4-oxadiazole-3-carboxamide]
Cc1cc(-c2ncnn3cc(CCN4CCC(c5ccc(C6CCC(=O)NC6=O)cc5)C(F)(F)C4)cc23)ccc1CNC(=O)c1noc(C(C)(C)C)n1 (stereo not drawn) [Example 119, 5-tert-butyl-N-[[4-[6-[2-[4-[4-(2,6-dioxo-3-piperidyl)phenyl]-3,3-difluoro-1-piperidyl]ethyl]pyrrolo[2,1-f][1,2,4]triazin-4-yl]-2-methyl-phenyl]methyl]-1,2,4-oxadiazole-3-carboxamide]
CC(C)(C)c1nc(C(=O)NCc2ccc(-c3ncnn4cc(CCN5CCC(c6ccc(NC7CCC(=O)NC7=O)cc6)CC5)cc34)cc2F)no1 (stereo not drawn) [Example 120, 5-tert-butyl-N-[[4-[6-[2-[4-[4-[(2,6-dioxo-3-piperidyl)amino]phenyl]-1-piperidyl]ethyl]pyrrolo[2,1-f][1,2,4]triazin-4-yl]-2-fluoro-phenyl]methyl]-1,2,4-oxadiazole-3-carboxamide]
